Results as given in patent US20230210999A1, “TARGETED PROTEASE DEGRADATION (TED) PLATFORM” (EUBULUS BIOTHERAPEUTICS INC., priority 2020, published 2023).
Where two headings read alike, the source gives them in different places.

Experiments:
Assay type in all cases: cell-based, human
[1] = tested on: MV4;11 cells; test: Cell proliferation experiment (Alamar blue, 72 h), MV4;11; conditions: read-out: Inhibitory activity IC50 on MV4;11
Protocol: (§1) Reagents: RPMI-1640 medium, McCoy's 5A medium, IMDM medium, MEM medium, L-15 medium, fetal bovine serum. Penicillin-Streptomycin double antibody, trypsin, etc., 2-mercaptoethanol, NEAA, pyruvate, etc.
(§2) The cells were cultured in conventional ways, and the cells should be passed at least 2 generations before plating. Cells at the logarithmic growth phase were collected, prepared into single cell suspensions and counted. The concentration of cells was adjusted to the desired concentration, and cells were inoculated into a 96-well cell culture plate at 100 μl per well. 100 μL of complete medium of the test compound were added to each well, set up 2 duplicate wells for each concentration, and diluted with a 5-fold gradient, and continued to culture for 72 h. All cells were subjected to IC50 test for corresponding samples. The experimental results are shown in Test Example 4.
(§3) The fluorescence intensity of each well was detected using the Alarm blue method, and IC50 was calculated.
(§4) IC50 was calculated according to the following formula:
(§5) Y=Max+(Min−Max)/[1+(X/IC50)×Slope]
(§6) wherein Min, Max and Slope represent the minimum, maximum and slope respectively.

[2] = tested on: Daudi cells; test: Cell proliferation experiment, Daudi; conditions: Daudi cells, read-out: Inhibitory activity IC50 on Daudi
Protocol: as §1, §2, §3, §4, §5, §6

[3] = tested on: NCIH82 cells; test: Cell proliferation experiment, NCI-H82; conditions: read-out: Inhibitory activity IC50 on NCI-H82
Protocol: as §1, §2, §3, §4, §5, §6

[4] = Homo sapiens, MV4-11, MV4;11 cells
[5] = Homo sapiens, NCI-H82, NCI-H82 cells

SMILES | IC50 [1, 4] | IC50 ([2]; Homo sapiens, Daudi) | IC50 [3, 5] | IC50 ([1]; MV4;11 cells) | IC50 [2] | IC50 ([3]; NCI-H82 cells)
O=C1CCC(N2Cc3cc(NC(=O)CCOCCOCCN[C@H]4CC[C@@H](n5cc(-c6ccc(Nc7ncc8c(n7)-c7ccc(Cl)cc7C(c7c(F)cccc7F)=NC8)cc6)nn5)CC4)ccc3C2=O)C(=O)N1 (stereo partly drawn) [UB-180981] | > 1 µM | > 1 µM | > 1 µM | – | – | –
O=C1CCC(N2Cc3c(NC(=O)CCCCCCCCCN[C@H]4CC[C@@H](n5cc(-c6ccc(Nc7ncc8c(n7)-c7ccc(Cl)cc7C(c7c(F)cccc7F)=NC8)cc6)nn5)CC4)cccc3C2=O)C(=O)N1 (stereo partly drawn) [UB-180996] | > 1 µM | > 1 µM | > 1 µM | – | – | –
O=C1CCC(N2Cc3cc(NC(=O)CCOCCOCCOCCNC(=O)[C@]4(Cc5cccc(Nc6nccs6)n5)CC[C@@H](Oc5cccc(Cl)c5F)CC4)ccc3C2=O)C(=O)N1 (stereo partly drawn) [UB-180948] | 0.01 to 0.1 µM | > 1 µM | > 1 µM | – | – | –
O=C1CCC(N2Cc3c(NC(=O)CCCCCCCNCCCn4cc(-c5ccc(Nc6ncc7c(n6)-c6ccc(Cl)cc6C(c6c(F)cccc6F)=NC7)cc5)nn4)cccc3C2=O)C(=O)N1 (stereo not drawn) [UB-180987] | > 1 µM | > 1 µM | > 1 µM | – | – | –
O=C1CCC(N2Cc3cc(NC(=O)CCOCCOCCNCCNC(=O)[C@]4(Cc5cccc(Nc6nccs6)n5)CC[C@@H](Oc5cccc(Cl)c5F)CC4)ccc3C2=O)C(=O)N1 (stereo partly drawn) [UB-181018] | > 1 µM | > 1 µM | > 1 µM | – | – | –
O=C1CCC(N2Cc3cc(NC(=O)CCCCCCCN[C@H]4CC[C@@H](n5cc(-c6ccc(Nc7ncc8c(n7)-c7ccc(Cl)cc7C(c7c(F)cccc7F)=NC8)cc6)nn5)CC4)ccc3C2=O)C(=O)N1 (stereo partly drawn) [UB-180989] | > 1 µM | > 1 µM | > 1 µM | – | – | –
O=C1CCC(N2Cc3c(NC(=O)CCNCCCOCCCCNC(=O)[C@]4(Cc5cccc(Nc6nccs6)n5)CC[C@@H](Oc5cccc(Cl)c5F)CC4)cccc3C2=O)C(=O)N1 (stereo partly drawn) [UB-181030] | > 1 µM | > 1 µM | > 1 µM | – | – | –
O=C1CCC(N2Cc3c(NC(=O)CCCCCCCN[C@H]4CC[C@@H](n5cc(-c6ccc(Nc7ncc8c(n7)-c7ccc(Cl)cc7C(c7c(F)cccc7F)=NC8)cc6)nn5)CC4)cccc3C2=O)C(=O)N1 (stereo partly drawn) [UB-180988] | > 1 µM | > 1 µM | > 1 µM | – | – | –
O=C1CCC(N2Cc3c(NC(=O)CCCCCCCCCNCCn4cc([C@]5(Cc6cccc(Nc7nccs7)n6)CC[C@@H](Oc6cccc(Cl)c6F)CC5)nn4)cccc3C2=O)C(=O)N1 (stereo partly drawn) [UB-181002] | > 1 µM | > 1 µM | > 1 µM | – | – | –
CCNC(=O)C#Cc1ccc2c(c1)NC(=O)/C2=C(\Nc1ccc(CNCCOCCOCCOCCC(=O)N[C@H](C(=O)N2C[C@H](O)C[C@H]2C(=O)NCc2ccc(-c3scnc3C)cc2)C(C)(C)C)cc1)c1ccccc1 [UB-180970] | 0.1 to 1 µM | > 1 µM | > 1 µM | – | – | –
CCNC(=O)C#Cc1ccc2c(c1)NC(=O)/C2=C(\Nc1ccc(CNCCOCCOCCOCCOCCC(=O)Nc2cccc3c2CN(C2CCC(=O)NC2=O)C3=O)cc1)c1ccccc1 (stereo not drawn) [UB-180956] | 0.1 to 1 µM | > 1 µM | > 1 µM | – | – | –
O=C1CCC(N2Cc3cc(C#CCCNCCOCCOCCNC(=O)c4ccc(Nc5ncc6c(n5)-c5ccc(Cl)cc5C(c5c(F)cccc5F)=NC6)cc4)ccc3C2=O)C(=O)N1 (stereo not drawn) [UB-181029] | > 1 µM | > 1 µM | > 1 µM | – | – | –
O=C1CCC(N2Cc3c(C#CCCNCCOCCOCCn4cc(-c5ccc(Nc6ncc7c(n6)-c6ccc(Cl)cc6C(c6c(F)cccc6F)=NC7)cc5)nn4)cccc3C2=O)C(=O)N1 (stereo not drawn) [UB-181027] | > 1 µM | > 1 µM | > 1 µM | – | – | –
O=C1CCC(N2Cc3c(NC(=O)CCCCCCCCCN[C@H]4CC[C@@H](n5cc(-c6ccc(Nc7ncc8c(n7)-c7ccc(Cl)cc7C(c7c(F)cccc7F)=NC8)cc6)nn5)CC4)cccc3C2=O)C(=O)N1 (stereo partly drawn) [UB-180997] | – | – | – | > 1 µM | > 1 µM | > 1 µM

The next lines start with the values.

IC50 [1, 4] | IC50 ([2]; Homo sapiens, Daudi) | IC50 [3, 5] | IC50 ([1]; MV4;11 cells) | IC50 [2] | IC50 ([3]; NCI-H82 cells) | SMILES
0.1 to 1 µM | > 1 µM | > 1 µM | – | – | – | O=C1CCC(N2Cc3c(NC(=O)CCNCCOCCOCCn4cc([C@]5(Cc6cccc(Nc7nccs7)n6)CC[C@@H](Oc6cccc(Cl)c6F)CC5)nn4)cccc3C2=O)C(=O)N1 (stereo partly drawn) [UB-181003]
0.1 to 1 µM | > 1 µM | > 1 µM | – | – | – | O=C1CCC(N2Cc3cc(NC(=O)CNCCCOCCCCCNC(=O)[C@]4(Cc5cccc(Nc6nccs6)n5)CC[C@@H](Oc5cccc(Cl)c5F)CC4)ccc3C2=O)C(=O)N1 (stereo partly drawn) [UB-181017]
0.1 to 1 µM | > 1 µM | > 1 µM | – | – | – | O=C1CCC(N2Cc3cc(C#CCCNCCOCCOCCn4cc(-c5ccc(Nc6ncc7c(n6)-c6ccc(Cl)cc6C(c6c(F)cccc6F)=NC7)cc5)nn4)ccc3C2=O)C(=O)N1 (stereo not drawn) [UB-181012]
0.1 to 1 µM | > 1 µM | 0.1 to 1 µM | – | – | – | CCNC(=O)C#Cc1ccc2c(c1)NC(=O)/C2=C(\Nc1ccc(CNCCOCCOCCC(=O)N[C@H](C(=O)N2C[C@H](O)C[C@H]2C(=O)NCc2ccc(-c3scnc3C)cc2)C(C)(C)C)cc1)c1ccccc1 [UB-180951]
0.1 to 1 µM | 0.1 to 1 µM | > 1 µM | – | – | – | CCNC(=O)C#Cc1ccc2c(c1)NC(=O)/C2=C(\Nc1ccc(CNCCOCCOCCC(=O)Nc2ccc3c(c2)CN(C2CCC(=O)NC2=O)C3=O)cc1)c1ccccc1 (stereo not drawn) [UB-180967]
0.1 to 1 µM | > 1 µM | > 1 µM | – | – | – | O=C1CCC(N2Cc3cc(C#CCCOCCOCCOCCNC4CCC(n5cc(-c6ccc(Nc7ncc8c(n7)-c7ccc(Cl)cc7C(c7c(F)cccc7F)=NC8)cc6)nn5)CC4)ccc3C2=O)C(=O)N1 (stereo not drawn) [UB-181010]
0.1 to 1 µM | > 1 µM | > 1 µM | – | – | – | O=C1CCC(N2Cc3c(NC(=O)CCCCCCCCCNCCn4cc(-c5ccc(Nc6ncc7c(n6)-c6ccc(Cl)cc6C(c6c(F)cccc6F)=NC7)cc5)nn4)cccc3C2=O)C(=O)N1 (stereo not drawn) [UB-180990]
0.1 to 1 µM | > 1 µM | > 1 µM | – | – | – | CCNC(=O)C#Cc1ccc2c(c1)NC(=O)/C2=C(\Nc1ccc(CNCCOCCOCCOCCOCCC(=O)N[C@H](C(=O)N2C[C@H](O)C[C@H]2C(=O)NCc2ccc(-c3scnc3C)cc2)C(C)(C)C)cc1)c1ccccc1 [UB-180955]
0.1 to 1 µM | > 1 µM | 0.1 to 1 µM | – | – | – | O=C1CCC(N2Cc3cc(C#CCCNCCOCCOCCOCCn4cc(-c5ccc(Nc6ncc7c(n6)-c6ccc(Cl)cc6C(c6c(F)cccc6F)=NC7)cc5)nn4)ccc3C2=O)C(=O)N1 (stereo not drawn) [UB-180965]
0.1 to 1 µM | > 1 µM | > 1 µM | – | – | – | O=C1CCC(N2Cc3cc(NC(=O)CCOCCOCCNCCn4cc(-c5ccc(Nc6ncc7c(n6)-c6ccc(Cl)cc6C(c6c(F)cccc6F)=NC7)cc5)nn4)ccc3C2=O)C(=O)N1 (stereo not drawn) [UB-181016]
0.1 to 1 µM | > 1 µM | > 1 µM | – | – | – | O=C1CCC(N2Cc3cc(NC(=O)CCOCCOCCN[C@H]4CC[C@@H](NC(=O)c5ccc(Nc6ncc7c(n6)-c6ccc(Cl)cc6C(c6c(F)cccc6F)=NC7)cc5)CC4)ccc3C2=O)C(=O)N1 (stereo partly drawn) [UB-180960]
0.01 to 0.1 µM | 0.1 to 1 µM | 0.1 to 1 µM | – | – | – | O=C1CCC(N2Cc3cc(NC(=O)CCCCCCCNCCn4cc(-c5ccc(Nc6ncc7c(n6)-c6ccc(Cl)cc6C(c6c(F)cccc6F)=NC7)cc5)nn4)ccc3C2=O)C(=O)N1 (stereo not drawn) [UB-180983]
0.1 to 1 µM | > 1 µM | > 1 µM | – | – | – | O=C1CCC(N2Cc3c(C#CCCNCCOCCn4cc(-c5ccc(Nc6ncc7c(n6)-c6ccc(Cl)cc6C(c6c(F)cccc6F)=NC7)cc5)nn4)cccc3C2=O)C(=O)N1 (stereo not drawn) [UB-180944]
0.1 to 1 µM | > 1 µM | > 1 µM | – | – | – | O=C1CCC(N2Cc3cc(C#CCCNCCOCCOCCNC(=O)[C@]4(Cc5cccc(Nc6nccs6)n5)CC[C@@H](Oc5cccc(Cl)c5F)CC4)ccc3C2=O)C(=O)N1 (stereo partly drawn) [UB-181015]
0.1 to 1 µM | > 1 µM | > 1 µM | – | – | – | O=C1CCC(N2Cc3c(NC(=O)CCOCCOCCN[C@H]4CC[C@@H](NC(=O)c5ccc(Nc6ncc7c(n6)-c6ccc(Cl)cc6C(c6c(F)cccc6F)=NC7)cc5)CC4)cccc3C2=O)C(=O)N1 (stereo partly drawn) [UB-180959]
0.1 to 1 µM | > 1 µM | > 1 µM | – | – | – | O=C1CCC(N2Cc3cc(NC(=O)CNCCOCCOCCOCCn4cc(-c5ccc(Nc6ncc7c(n6)-c6ccc(Cl)cc6C(c6c(F)cccc6F)=NC7)cc5)nn4)ccc3C2=O)C(=O)N1 (stereo not drawn) [UB-180976]
0.1 to 1 µM | > 1 µM | > 1 µM | – | – | – | O=C1CCC(N2Cc3cc(NC(=O)CCNCCOCCOCCn4cc(-c5ccc(Nc6ncc7c(n6)-c6ccc(Cl)cc6C(c6c(F)cccc6F)=NC7)cc5)nn4)ccc3C2=O)C(=O)N1 (stereo not drawn) [UB-180991]
0.1 to 1 µM | > 1 µM | 0.1 to 1 µM | – | – | – | O=C1CCC(N2Cc3c(C#CCCNCCCOCCCn4cc(-c5ccc(Nc6ncc7c(n6)-c6ccc(Cl)cc6C(c6c(F)cccc6F)=NC7)cc5)nn4)cccc3C2=O)C(=O)N1 (stereo not drawn) [UB-180946]
0.01 to 0.1 µM | > 1 µM | > 1 µM | – | – | – | CCNC(=O)C#Cc1ccc2c(c1)NC(=O)/C2=C(\Nc1ccc(CNCCOCCOCCOCCOCC(=O)Nc2ccc3c(c2)CN(C2CCC(=O)NC2=O)C3=O)cc1)c1ccccc1 (stereo not drawn) [UB-180963]
